Assay results from US20230257351A1, “SUBSTITUTED N-[…] HAVING P2X4 RECEPTOR ANTAGONISTIC ACTIVITY” (Bayer Aktiengesellschaft, priority 2020, published 2023).

Legend:
[1] = biological target: T1, rat P2X4 (Rattus norvegicus, UniProt P51577); experiment: FLIPR Method for Rat P2X4 1321N1 Astrocytoma Cells; assay type: cell-based; conditions: 1321N1 stably expressing rat P2X4; agonist MgATP 5 μM (EC80)
T1 construct: expressed in transfected cells
T1 sequence (P51577 1-388): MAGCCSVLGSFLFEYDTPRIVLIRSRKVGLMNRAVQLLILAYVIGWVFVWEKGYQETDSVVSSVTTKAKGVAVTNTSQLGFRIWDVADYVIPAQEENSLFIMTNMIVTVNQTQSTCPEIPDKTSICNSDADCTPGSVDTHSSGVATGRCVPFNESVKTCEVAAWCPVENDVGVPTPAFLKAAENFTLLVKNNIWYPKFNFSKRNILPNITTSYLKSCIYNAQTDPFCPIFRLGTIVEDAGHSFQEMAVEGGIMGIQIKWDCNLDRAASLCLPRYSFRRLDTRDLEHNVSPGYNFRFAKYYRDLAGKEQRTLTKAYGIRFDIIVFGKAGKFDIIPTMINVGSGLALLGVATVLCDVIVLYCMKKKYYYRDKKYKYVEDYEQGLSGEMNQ
In short: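 1321N1 cells stably expressing rat P2X4, Fluo8-AM loaded; compounds (25 μM to 1 nM final, ten concentrations) preincubated 30 min at room temperature, then MgATP added at 5 μM (EC80). Calcium fluorescence read on FLIPR before and after agonist; triplicate data normalized to agonist control, four-parameter fit gives IC50.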

[2] = system: neuropathic mechanical allodynia induced by CCI surgery; experiment: Chronic Constriction Injury (CCI) Neuropathic Pain Model in Rats with Pain Behavior Read Out; assay type: in vivo, male Sprague-Dawley rats; conditions: rat CCI, von Frey, BID p.o. days 0 through 9
Method: Aim of the study was to test the efficacy of example 68 at ameliorating neuropathic mechanical allodynia. Male Sprague-Dawley rats were subject to chronic constriction injury of the sciatic nerve to induce neuropathic pain. Of those rats, 10 per group were assigned to treatment conditions involving BID drug administration for 10 days and behavioral assessment of mechanical sensitivity for allodynia with von Frey testing (vF). Behavior was assessed pre- and postdosing on Days 0, 2, 5, and 9. Rats were treated with Vehicle or test article BID on days 0 through 9, and rats in the gabapentin treatment group received gabapentin SID on days 0, 2, 5, and 9 in conjunction with behavioral assessment.
As vehicle Solutol/DMSO/WFI (40/10/50) was employed. Application volume for the per oral administration was 10 ml/kg.
Neuropathy was induced in male Sprague-Dawley rats by tying four loose ligatures of chromic gut around the common sciatic nerve in deeply anesthetized rats like described in Bennett, G. J., and Y. K. Xie. “A Peripheral Mononeuropathy in Rat That Produces Disorders of Pain Sensation like Those Seen in Man.” Pain 33 (1988): 87-107.
Mechanical allodynia was measured using 8 Semmes-Weinstein filaments (Stoelting©; Wood Dale, Ill., USA) with varying stiffness (0.4, 0.6, 1.0, 2.0, 4.0, 6.0, 8.0, and 15 g) according to the up-down method1. Animals were placed in individual acrylic chambers on a metal mesh surface and allowed to acclimate to their surroundings for a minimum of 15 minutes before testing. Each filament was presented perpendicular to the plantar surface with sufficient force to cause slight buckling against the paw and held for approximately 6 seconds or until a positive response is noted (paw sharply withdrawn).
Testing was initiated with the 2.0 g filament. In the absence of a paw withdrawal response, the next stronger stimulus was presented. In the event of paw withdrawal, the next weaker stimulus was used. […]
The 50% response threshold is calculated using the formula: […]

[3] = system: intraplantar Complete Freund's Adjuvant (CFA)-induced acute inflammatory pain; experiment: CFA Inflammation Model in Rats with Pain Behaviour Read Out; assay type: in vivo, male Sprague Dawley rats; conditions: for PWT 2 hour-post drug: mean PWT
Method: Compound was tested in the model of intraplantar Complete Freund's Adjuvant (CFA)-induced acute (48-hours setting) inflammatory pain in male Sprague Dawley rats. Briefly, 25 μl of CFA at 1 mg/ml was injected into the plantar surface of one hind paw. Mechanical hyperalgesia was measured using the Pressure Application Measurement apparatus (Ugo Basile, Gemonio, Italy). A linearly increasing pressure was applied to an area of approximately 50 mm^2 of the plantar side of the hind paw until a behavioural response (paw withdrawal) was observed or until the pressure reached 1000 grams of force (gf). The pressure at which the behavioural response occurred was recorded as the “Paw Withdrawal Threshold” (PWT). Both CFA-injected and contralateral PWTs were determined for each rat, in each treatment group and at each time point of the studies. The measurements were performed blinded. […] Compound or vehicle (10% DMSO, 40% Solutol, 50% water for injection, vol/vol) were dosed via oral route (p.o.) once daily (QD) or twice daily (BID) during 3 days, starting before CFA injection. Data were expressed as the mean PWT for each treatment group and at each time point. PWT data were analysed by performing a two way ANOVA with repeated measures (time×treatment). Planned comparison of means (each versus vehicle) was performed by using a Dunnett's post hoc test, provided that a main effect was detected. For p values less than 0.05, the results were deemed to be statistically significant.

IC50 [1]: 0.233 µM
Rat P2X4 1321N1 Astrocytoma Cells (FLIPR Assay) avg Efficacy [1]: 89%
Compound: CC(=O)N(c1ccc(F)c(F)c1)c1cc(NC(=O)Cc2ccc(F)cc2Cl)ccn1 [Example 68, N-{4-[2-(2-chloro-4-fluorophenyl)acetamido]pyridin-2-yl}-N-(3,4-difluorophenyl)acetamide]
mechanical allodynia induced by CCI surgery [2]: decreased mechanical allodynia
50% paw withdrawal threshold ([2]; 30 and 100 mg/kg (FIG. 1)): increased 50% paw withdrawal threshold significantly
PWT 2 hour-post drug ([3]; rat CFA, 10 mg/kg BID p.o. during 3 days): 630 gf
PWT 2 hour-post drug ([3]; rat CFA, 30 mg/kg BID p.o. during 3 days): 648 gf
PWT 2 hour-post drug ([3]; rat CFA, 100 mg/kg BID p.o. during 3 days): 759 gf
pain after treatment ([3]; rat CFA, 10, 30 and 100 mg/kg doses BID, 2 hours after last administration): significantly reduced pain
development of inflammatory pain after the injection of CFA ([3]; rat, oral administration BID during 3 days): prevented the development of inflammatory pain
